IC50 data for 38 compounds are collected here from US20260356817A1, “AMINOPYRIMIDINE AND AMINOTRIAZINE DERIVATIVES AS MYC PROTEIN MODULATORS” (Sanford Burnham Prebys Medical Discovery Institute, priority 2022, published 2026).

pIC50: −log10 of the molar value. Where two headings read alike, the source gives them in different places.

The test system of the test is Myc. Briefly: Myc inhibition assay: Myc expression per cell by anti-Myc immunofluorescence, high-content imaging. The test is classed as cell-based, human (patient-derived medulloblastoma xenograft cells). The conditions noted are these: medulloblastoma PDX cells, 4 h. The method in brief:
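IC50 comes from high-content imaging of per-cell Myc immunostaining (DAPI-labelled nuclei) after 4 h compound exposure. Cells were freshly dissociated medulloblastoma PDX tumours, never passaged in vitro, grown in NSG mouse cerebellum, plated serum-free and recovered overnight before treatment.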

Setting [1] is: Table 1, read-out: IC50 (Myc inhibition).
The mark [2] stands for this setting: Table 2, read-out: MYC Inhibition IC50.

Consider `COC(=O)c1cccc(Nc2nccc(-c3ccnc(O)c3)n2)c1` [Compound 185, methyl 3-((4-(2-hydroxypyridin-4-yl)pyrimidin-2-yl)amino)benzoate], for which the pIC50 under setting [1] was 5.00 to 6.00 and the pIC50 under setting [2] was 5.00 to 6.00.
Regarding `Cc1nc2ccc(-c3ccnc(Nc4cccc(C(F)(F)F)c4)n3)cc2[nH]1` [Compound 142, 4-(2-Methyl-1H-benzo[d]imidazol-6-yl)-N-(3-(trifluoromethyl)phenyl)pyrimidin-2-amine], the pIC50 reads like this: under setting [1], 6.00 to 6.70; under setting [2], 6.00 to 6.70.
Regarding `COc1cc(-c2ccnc(Nc3ncccn3)n2)ccn1` [Compound 195, 4-(2-methoxypyridin-4-yl)-N-(pyrimidin-2-yl)pyrimidin-2-amine], the pIC50 under setting [1] is 4.00 to 5.00 and the pIC50 under setting [2] is 4.00 to 5.00.
Regarding `NC(=O)c1cccc(Nc2nccc(-c3ccc4[nH]cnc4c3)n2)c1` [Compound 67, 3-((4-(1H-benzo[d]imidazol-5-yl)pyrimidin-2-yl)amino)benzamide], the pIC50 runs as follows: under setting [1], 6.00 to 6.70; under setting [2], 6.00 to 6.70.
As for `CC(C)(C)c1cccc(Nc2nccc(-c3ccnc(O)c3)n2)c1` [Compound 149, 4-(2-((3-(tert-butyl)phenyl)amino)pyrimidin-4-yl)pyridin-2-ol], the pIC50 reads like this: under setting [1], 6.00 to 6.70; under setting [2], 6.00 to 6.70.
Consider `FC(F)(F)c1cccc(Nc2nccc(-c3cnc4nc[nH]c4c3)n2)c1` [Compound 161, 4-(1H-imidazo[4,5-b]pyridin-6-yl)-N-(3-(trifluoromethyl)phenyl)pyrimidin-2-amine], for which the pIC50 under setting [1] is above 6.70 and the pIC50 under setting [2] was above 6.70.
As for `COc1cc(-c2ccnc(Nc3cccc(C(C)(C)C)c3)n2)ccn1` [Compound 150, N-(3-(tert-butyl)phenyl)-4-(2-methoxypyridin-4-yl)pyrimidin-2-amine], the negative logarithm of the IC50 (pIC50) by setting is: under setting [1], 5.00 to 6.00; under setting [2], 5.00 to 6.00.
`COc1ccc(-c2ccnc(Nc3cccc(F)c3)n2)s1` [Compound 176, N-(3-fluorophenyl)-4-(5-methoxythiophen-2-yl)pyrimidin-2-amine]: the pIC50 was 5.00 to 6.00 under setting [1] and 5.00 to 6.00 under setting [2].
Turning to `FC(F)(F)c1cccc(Nc2nccc(-c3ccc4cc[nH]c4c3)n2)c1` [Compound 172, 4-(1H-indol-6-yl)-N-(3-(trifluoromethyl)phenyl)pyrimidin-2-amine], the pIC50 by setting is: under setting [1], 5.00 to 6.00; under setting [2], 5.00 to 6.00.
Turning to `CNS(=O)(=O)c1cccc(Nc2nccc(-c3ccc4[nH]cnc4c3)n2)c1` [Compound 25, 3-((4-(1H-benzo[d]imidazol-5-yl)pyrimidin-2-yl)amino)-N-methylbenzenesulfonamide], the pIC50 runs as follows: under setting [1], above 6.70; under setting [2], above 6.70.
Turning to `COc1cc(-c2ccnc(Nc3ccccc3)n2)ccn1` [Compound 252, 4-(2-methoxypyridin-4-yl)-N-phenylpyrimidin-2-amine], the pIC50 was 4.00 to 5.00 under setting [1] and 4.00 to 5.00 under setting [2].
As for `CC(C)(C)c1ccc(Nc2nccc(-c3ccc4[nH]cnc4c3)n2)cc1` [Compound 72, 4-(1H-benzo[d]imidazol-5-yl)-N-(4-(tert-butyl)phenyl)pyrimidin-2-amine], the pIC50 was 5.00 to 6.00 under setting [1] and 5.00 to 6.00 under setting [2].
`FC(F)(F)c1cccc(Nc2nccc(NCCc3cnc[nH]3)n2)c1` [Compound 111, N^4-(2-(1H-Imidazol-4-yl)ethyl)-N^2-(3-(trifluoromethyl)phenyl)pyrimidine-2,4-diamine]: the pIC50 reads like this: under setting [1], 5.00 to 6.00; under setting [2], 5.00 to 6.00.
In the case of `COc1cccc(-c2ccnc(Nc3ccccc3)n2)c1` [Compound 253, 4-(3-methoxyphenyl)-N-phenylpyrimidin-2-amine], the pIC50 is 4.00 to 5.00 under setting [1] and 4.00 to 5.00 under setting [2].
For the compound `CC(C)c1ccccc1Nc1nccc(-c2ccc3[nH]cnc3c2)n1` [Compound 64, 4-(1H-benzo[d]imidazol-5-yl)-N-(2-isopropylphenyl)pyrimidin-2-amine], the pIC50 under setting [1] is 5.00 to 6.00 and the pIC50 under setting [2] was 5.00 to 6.00.
Consider `O=C(c1cccc(Nc2nccc(-c3ccc4[nH]cnc4c3)n2)c1)N1CCOCC1` [Compound 11, (3-((4-(1H-benzo[d]imidazol-5-yl)pyrimidin-2-yl)amino)phenyl)(morpholino)methanone], for which the pIC50 reads like this: under setting [1], 6.00 to 6.70; under setting [2], 6.00 to 6.70.
Turning to `Oc1cc(-c2ccnc(Nc3cccc(C(F)(F)F)c3)n2)ncn1` [Compound 131, 2′-((3-(trifluoromethyl)phenyl)amino)-[4,4′-bipyrimidin]-6-ol], the negative-log IC50 (pIC50) is 5.00 to 6.00 under setting [1] and 5.00 to 6.00 under setting [2].
As to `CC(C)(C)c1cccc(Nc2nccc(-c3ccc4[nH]cnc4c3)n2)c1` [Compound 87, 4-(1H-benzo[d]imidazol-5-yl)-N-(3-(tert-butyl)phenyl)pyrimidin-2-amine], the pIC50 under setting [1] was 6.00 to 6.70 and the pIC50 under setting [2] was 6.00 to 6.70.
As for `Fc1cccc(Nc2nccc(-c3ccn4nccc4n3)n2)c1` [Compound 270, N-(3-fluorophenyl)-4-(pyrazolo[1,5-a]pyrimidin-5-yl)pyrimidin-2-amine], the pIC50 reads like this: under setting [1], 5.00 to 6.00; under setting [2], 5.00 to 6.00.
Turning to `Clc1ccc(Nc2nccc(-c3ccc4[nH]cnc4c3)n2)cc1Cl` [Compound 98, 4-(1H-benzo[d]imidazol-5-yl)-N-(3,4-dichlorophenyl)pyrimidin-2-amine], the pIC50 under setting [1] is 6.00 to 6.70 and the pIC50 under setting [2] is 6.00 to 6.70.
As for `COc1ncc(-c2ccnc(Nc3cccc(C(F)(F)F)c3)n2)s1` [Compound 143, 4-(2-methoxythiazol-5-yl)-N-(3-(trifluoromethyl)phenyl)pyrimidin-2-amine], the pIC50 by setting is: under setting [1], 6.00 to 6.70; under setting [2], 6.00 to 6.70.
Consider `Oc1cccc(-c2ccnc(Nc3ccccc3)n2)c1` [Compound 244, 3-(2-(phenylamino)pyrimidin-4-yl)phenol], for which the pIC50 under setting [1] is 5.00 to 6.00 and the pIC50 under setting [2] is 5.00 to 6.00.
Consider `Oc1cc(-c2ccnc(Nc3cccc(F)c3)n2)ccn1` [Compound 242, 4-(2-((3-fluorophenyl)amino)pyrimidin-4-yl)pyridin-2-ol], for which the pIC50 was 6.00 to 6.70 under setting [1] and 6.00 to 6.70 under setting [2].
On to `CCc1ccccc1Nc1nccc(-c2ccc3[nH]cnc3c2)n1` [Compound 80, 4-(1H-benzo[d]imidazol-5-yl)-N-(2-ethylphenyl)pyrimidin-2-amine], for which the pIC50 was 5.00 to 6.00 under setting [1] and 5.00 to 6.00 under setting [2].
In the case of `CN1CCN(c2cccc(Nc3nccc(-c4ccc5[nH]cnc5c4)n3)c2)CC1` [Compound 71, 4-(1H-benzo[d]imidazol-5-yl)-N-(3-(4-methylpiperazin-1-yl)phenyl)pyrimidin-2-amine], the pIC50 is, setting by setting: under setting [1], 6.00 to 6.70; under setting [2], 6.00 to 6.70.
Regarding `FC(F)c1cccc(Nc2nccc(-c3ccc4nc[nH]c4c3)n2)c1` [Compound 280, 4-(1H-benzo[d]imidazol-5-yl)-N-(3-(difluoromethyl)phenyl)pyrimidin-2-amine], the pIC50 by setting is: under setting [1], above 6.70; under setting [2], above 6.70.
Turning to `Oc1ccc(Nc2nccc(-c3ccc4[nH]cnc4c3)n2)cn1` [Compound 29, 5-((4-(1H-benzo[d]imidazol-5-yl)pyrimidin-2-yl)amino)pyridin-2-ol], the pIC50 runs as follows: under setting [1], 5.00 to 6.00; under setting [2], 5.00 to 6.00.
Regarding `COc1cc(-c2ccnc(Nc3cccc(C)c3)n2)ccn1` [Compound 160, 4-(2-methoxypyridin-4-yl)-N-(m-tolyl)pyrimidin-2-amine], the negative-log IC50 (pIC50) runs as follows: under setting [1], 5.00 to 6.00; under setting [2], 5.00 to 6.00.
For the compound `c1cc(-c2ccc3[nH]cnc3c2)nc(Nc2cnn(C3CCOCC3)c2)n1` [Compound 6, 4-(1H-benzo[d]imidazol-5-yl)-N-(1-(tetrahydro-2H-pyran-4-yl)-1H-pyrazol-4-yl)pyrimidin-2-amine], the pIC50 under setting [1] is 5.00 to 6.00 and the pIC50 under setting [2] was 5.00 to 6.00.
As to `CN(c1cccc(F)c1)c1nccc(-c2ccnc(O)c2)n1` [Compound 237, 4-(2-((3-fluorophenyl)(methyl)amino)pyrimidin-4-yl)pyridin-2-ol], the pIC50 by setting is: under setting [1], 4.00 to 5.00; under setting [2], 4.00 to 5.00.
In the case of `COc1cc(-c2ccnc(Nc3ccccn3)n2)ccn1` [Compound 187, 4-(2-methoxypyridin-4-yl)-N-(pyridin-2-yl)pyrimidin-2-amine], the pIC50 under setting [1] is 4.00 to 5.00 and the negative logarithm of the IC50 (pIC50) under setting [2] is 4.00 to 5.00.
On to `Oc1cc(-c2ccnc(Sc3ccccc3)n2)ccn1` [Compound 231, 4-(2-(phenylthio)pyrimidin-4-yl)pyridin-2-ol], for which the pIC50 under setting [1] was 4.00 to 5.00 and the pIC50 under setting [2] was 4.00 to 5.00.
With `COc1cc(-c2ccnc(Oc3ccccc3)n2)ccn1` [Compound 235, 4-(2-methoxypyridin-4-yl)-2-phenoxypyrimidine], the pIC50 runs as follows: under setting [1], 4.00 to 5.00; under setting [2], 4.00 to 5.00.
With `CN(c1cccc(C(F)(F)F)c1)c1nccc(-c2ccnc(O)c2)n1` [Compound 220, 4-(2-(methyl (3-(trifluoromethyl)phenyl)amino)pyrimidin-4-yl)pyridin-2-ol], the pIC50 reads like this: under setting [1], 4.00 to 5.00; under setting [2], 4.00 to 5.00.
For `NCCOc1cccc(Nc2nccc(-c3ccnc(O)c3)n2)c1` [Compound 120, 4-(2-((3-(2-aminoethoxy)phenyl)amino)pyrimidin-4-yl)pyridin-2-ol], the pIC50 reads like this: under setting [1], 5.00 to 6.00; under setting [2], 5.00 to 6.00.
As to `Fc1cccc(Nc2nccc(-c3ccc4[nH]nnc4c3)n2)c1` [Compound 138, 4-(1H-benzo[d][1,2,3]triazol-5-yl)-N-(3-fluorophenyl)pyrimidin-2-amine], the pIC50 was 5.00 to 6.00 under setting [1] and 5.00 to 6.00 under setting [2].
In the case of `Oc1ccc(Nc2ccnc(Nc3cccc(F)c3)n2)cn1` [Compound 123, 5-((2-((3-fluorophenyl)amino)pyrimidin-4-yl)amino)pyridin-2-ol], the pIC50 runs as follows: under setting [1], 4.00 to 5.00; under setting [2], 4.00 to 5.00.
With `COc1cccc(-c2ccnc(Nc3ccccc3)n2)n1` [Compound 236, 4-(6-methoxypyridin-2-yl)-N-phenylpyrimidin-2-amine], the pIC50 runs as follows: under setting [1], 4.00 to 5.00; under setting [2], 4.00 to 5.00.
